Source: publication PMC10983001, “Development of Cytotoxic GW7604-Zeise’s Salt Conjugates as Multitarget Compounds with Selectivity for Estrogen Receptor- Positive Tumor Cells” (Journal of Medicinal Chemistry, 2024)

Experiments:
MCF-7 cells [1] = assay: MTT assay of metabolic activity, MCF-7; type: cell-based, human; settings: 72 h, MTT; read-out: IC50 MCF-7
Description: (§1) The GW7604-Alk-PtCl3 complexes (with exclusion of GW7604-Prop-PtCl3) were investigated for cytotoxic effects in SKBr3 (ER-negative, COX-2-positive, Figure 6), MCF-7 (ERα-positive, COX-negative, Figure 6), and noncancerous TSA-201 (human embryonal kidney) cells at concentrations of 10–30 μM using an established MTT (3-(4,5-dimethylthiazol-2-yl)-2,5-diphenyltetrazolium bromide) assay.[60],[69]
(§2) After incubation for 72 h, the amounts of surviving, metabolically active cells were quantified based on their ability to transform the water-soluble yellow dye MTT to a purple formazan, which can be analyzed by UV–vis spectroscopy.
(§3) The exponentially growing cells were seeded at a density of 1750 (MCF-7), 2000 (SKBr3), and 1250 (TSA-201) cells/well into clear flat-bottom 96-well plates in triplicate. Following 24 h of incubation at 37 °C in a humidified atmosphere (5% CO2/95% air), the compounds [freshly prepared stock solutions in DMF, diluted with DMEM to the desired concentration (final DMF concentration of 0.1% (v/v))] were added to reach the indicated concentrations. After another 72 h of incubation, the cellular metabolic activity was measured employing an MTT assay. By adding predissolved MTT reagent in PBS at a final concentration of 0.5 mg/mL, the metabolic activity can be determined via an enzymatic conversion to a purple formazan salt. After 3 h, the medium was aspirated, and 200 μL of DMSO was added to dissolve the formed formazan crystals. The absorbance was measured at 570 and 690 nm (turbidity assessment) using an EnSpire plate reader (PerkinElmer, Waltham, MA, USA). Solvent-treated cells without a compound served as the positive control. Metabolic activity was calculated by the following equation [drawing 1]

SKBr3 cells [2] = assay: MTT assay of metabolic activity, SKBr3; type: cell-based, human; settings: 72 h
Description: as §1, §2, §3

MCF-7 cells [3] = assay: Cellular uptake (platinum by HR-CS-AAS), MCF-7; type: cell-based, human; settings: MCF-7, 20 μM, 8 h
Description: (§4) In order to reach the DNA, the complexes must first pass through the cell membrane and penetrate into the nuclei. Therefore, the cellular uptake kinetics of GW7604-Alk-PtCl3 complexes were studied using the example of GW7604-Pent-PtCl3. This complex and Cisplatin, respectively, were incubated at a concentration of 20 μM with MCF-7 or SKBr3 cells. After various time points [i.e., 0 (3 min), 0.5, 1, 2, 4, and 8 h], cell pellets were prepared, and the platinum content was quantified by high-resolution continuum source atomic absorption spectrometry (HR-CS-AAS).[52]
(§5) After thawing of the cell/nuclei pellets, they were resuspended in ultrapure water (Siemens LaboStar, Günzburg, Germany; 300 μL) and lyzed with a sonotrode (Bandelin Sonoplus, Berlin, Germany; parameters 20 s, 9 cycles, 80% power). Graphite furnace (GF) AAS was used to quantify the lysates concerning their content of platinum (λ = 265.9450 nm). For this purpose, a contrAA 700 High-Resolution-Continous Source AAS (Analytik Jena, Jena, Germany) was employed, while atomization took place by electrothermal heating of graphite tubes with an inserted platform (Analytik Jena, Jena, Germany). A time–temperature program reported in the literature[25] was followed with minor adjustments. The liquid samples kept in 0.5 mL polystyrene vials (Gesellschaft für Analysentechnik, Salzwedel, Germany) were injected directly into the pyrolytically coated tubes using an MPE 60 autosampler (Analytik Jena, Jena, Germany). Throughout the measurements, argon (Alphagaz 1, 99.999%, Air Liquide, Düsseldorf, Germany) served as the purge and protective gas. The spectrometer was monitored with the ASpect CS software, version 2.3.1.0 (Analytik Jena, Jena, Germany). For all runs, the mean integrated absorbance was determined after three injections of each standard or sample. Calibration was performed by an appropriate dilution of a solution of Cisplatin (Sigma-Aldrich, Taufkirchen, Germany) obtaining five standards (2–10 μg/L, R^2 ≥ 0.982). Each cell/nuclei lysate was quantified concerning its protein content following the method of Bradford[71] in order to express the uptake as the amount of compound (pmol) in the lysate relative to its protein mass (mg). Therefore, solutions of Albumin fraction V (Carl Roth, Karlsruhe, Germany) diluted with ultrapure water were adduced for the calibration (six standards, 50–300 μg/mL, R^2 ≥ 0.996). A volume of 20 μL of the Albumin standards or the lysates was added to a 96-well plate (Sarstedt, Nürmbrecht, Germany) and supplemented with 200 μL of Bradford’s reagent (Roti-Nanoquant, Carl Roth, Karlsruhe, Germany; diluted 5-fold with ultrapure water). All standards and lysates were measured in duplicate. After incubating for 5 min at rt, the absorbance (λ = 595 nm) was read on a microplate reader (Tecan Safire 2, Männedorf, Switzerland). The cellular/nuclear uptake (pmol complex/mg protein) is given as the mean ± SD of 2 independent experiments.
For cellular uptake studies, 1.0 × 10^6 of MCF-7 and SKBr3 cells in their exponential growing phase were seeded into 25 cm^2 cell culture flasks and incubated for 24 h under a humidified atmosphere (5% CO2/95% air) at 37 °C. Stock solutions of the platinum complexes (GW7604-Pent-PtCl3, Cisplatin) in DMF were freshly prepared and diluted with complete DMEM containing 10% FCS to the desired concentration [final DMF concentration of 0.1% (v/v), final complex concentration of 20 μM]. The medium in the cell culture flasks was replaced with 3 mL of fresh cell culture medium containing the compounds, and the flasks were incubated under a humidified atmosphere at 37 °C for 3 min, 0.5, 1, 2, 4, and 8 h. Cell pellets were prepared by removing the medium, washing two times with phosphate-buffered saline (PBS), and detaching the cells with Accutase (GE Healthcare, BioSciences, Chicago, IL, USA). Subsequently, cells were pelleted by centrifugation (4 °C, 380g, 3 min). […]

SKBr3 cells [4] = assay: Cellular uptake (platinum by HR-CS-AAS), SKBr3; type: cell-based, human; settings: 8 h
Description: as §4
as §5, with “A volume of 20 μL of the Albumin standards or the lysates was added to a 96-well plate (Sarstedt, Nürmbrecht, Germany) and supplemented with 200 μL of Bradford’s reagent (Roti-Nanoquant, Carl Roth, Karlsruhe, Germany; diluted 5-fold with ultrapure water).” left out, “The cellular/nuclear uptake (pmol complex/mg protein) is given as the mean ± SD of 2 independent experiments.” left out

nuclei of MCF-7 cells = assay: Nuclear uptake (platinum by HR-CS-AAS), MCF-7; type: cell-based, human; settings: MCF-7, 20 μM, 24 h; pmol complex/mg protein
Description: (§6) Fluorescence in the nuclei is not detectable. Therefore, the nuclei were analyzed for their platinum content using HR-CS-AAS.[25]
(§7) After thawing of the cell/nuclei pellets, they were resuspended in ultrapure water (Siemens LaboStar, Günzburg, Germany; 300 μL) and lyzed with a sonotrode (Bandelin Sonoplus, Berlin, Germany; parameters 20 s, 9 cycles, 80% power). Graphite furnace (GF) AAS was used to quantify the lysates concerning their content of platinum (λ = 265.9450 nm). For this purpose, a contrAA 700 High-Resolution-Continous Source AAS (Analytik Jena, Jena, Germany) was employed, while atomization took place by electrothermal heating of graphite tubes with an inserted platform (Analytik Jena, Jena, Germany). […] The spectrometer was monitored with the ASpect CS software, version 2.3.1.0 (Analytik Jena, Jena, Germany). For all runs, the mean integrated absorbance was determined after three injections of each standard or sample. […] Each cell/nuclei lysate was quantified concerning its protein content following the method of Bradford[71] in order to express the uptake as the amount of compound (pmol) in the lysate relative to its protein mass (mg). […] All standards and lysates were measured in duplicate. After incubating for 5 min at rt, the absorbance (λ = 595 nm) was read on a microplate reader (Tecan Safire 2, Männedorf, Switzerland). […]

nuclei of SKBr3 cells = assay: Nuclear uptake (platinum by HR-CS-AAS), SKBr3; type: cell-based, human; settings: SKBr3, 20 μM, 24 h
Description: as §6, §7

MCF-7 cells [5] = assay: Comet assay; type: cell-based, human; settings: MCF-7, 15 μM, 48 h
Description: The comet assay (Figure 10), however, documents different consequences of DNA binding. […] The picture (Figure 10C) is very similar to that of the solvent control (Figure 10A).
MCF-7 cells were seeded at a density of 1.0 × 10^6 cells into a 25 cm^2 flask, followed by 24 h of incubation in a humidified atmosphere (5% CO2/95% air) at 37 °C. […] Cells were incubated with the compounds for 48 h. The assay was performed according to the manufacturer’s protocol (Comet assay kit, Abcam, Cambridge, UK). Briefly, after lysis and application to the microscopy slides, electrophoresis was run in an alkaline buffer for 20 min at 2 V/cm. Subsequently, slides were washed with pure deionized water and EtOH/water [7/3 (v/v)], and stained with Vista Green DNA Dye. Visualization was carried out by real-time live confocal microscopy using an inverted microscope (Zeiss Observer Z1) in arrangement with a spinning disc confocal system (UltraVIEW VoX).

human recombinant COX-1 = target: T1, human recombinant COX-1 (Homo sapiens, UniProt P23219); type: biochemical; settings: 20 μM, incubation 10 min
T1 construct: purchased Cayman Chemicals
T1 sequence (P23219 24-599): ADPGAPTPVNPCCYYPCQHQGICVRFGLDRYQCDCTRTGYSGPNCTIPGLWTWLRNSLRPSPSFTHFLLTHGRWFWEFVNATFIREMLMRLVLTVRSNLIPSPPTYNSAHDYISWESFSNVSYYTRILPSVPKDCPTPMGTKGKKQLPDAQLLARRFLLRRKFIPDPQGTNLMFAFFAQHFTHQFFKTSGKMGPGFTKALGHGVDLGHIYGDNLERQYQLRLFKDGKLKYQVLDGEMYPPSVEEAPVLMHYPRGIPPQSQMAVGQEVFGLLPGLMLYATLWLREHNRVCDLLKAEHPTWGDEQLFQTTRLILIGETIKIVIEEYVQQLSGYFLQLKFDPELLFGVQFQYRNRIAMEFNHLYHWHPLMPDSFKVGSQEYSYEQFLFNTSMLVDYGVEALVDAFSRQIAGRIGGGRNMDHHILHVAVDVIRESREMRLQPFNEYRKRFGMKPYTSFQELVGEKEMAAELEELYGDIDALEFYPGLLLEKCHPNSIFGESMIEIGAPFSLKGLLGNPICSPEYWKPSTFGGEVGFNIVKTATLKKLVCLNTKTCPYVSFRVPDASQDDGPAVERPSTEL
Description: (§8) COX-1/2 inhibition was evaluated in an established assay on isolated isoenzymes. After incubation with the drugs (concentration: 20 μM) for 10 min, the remaining COX activity was measured by an enzyme-linked immunosorbent assay (ELISA).
(§9) The incubation time of the compounds with the respective isoenzymes was exactly 10 min. The results are presented as the mean ± SEM of three independent experiments, with two replicates of each experiment. […] Graphs were drawn using GraphPad Prism 8.0.

human recombinant COX-2 = target: T2, human recombinant COX-2 (Homo sapiens, UniProt P35354); type: biochemical; settings: 20 μM, incubation 10 min
T2 construct: purchased Cayman Chemicals
T2 sequence (P35354 18-604): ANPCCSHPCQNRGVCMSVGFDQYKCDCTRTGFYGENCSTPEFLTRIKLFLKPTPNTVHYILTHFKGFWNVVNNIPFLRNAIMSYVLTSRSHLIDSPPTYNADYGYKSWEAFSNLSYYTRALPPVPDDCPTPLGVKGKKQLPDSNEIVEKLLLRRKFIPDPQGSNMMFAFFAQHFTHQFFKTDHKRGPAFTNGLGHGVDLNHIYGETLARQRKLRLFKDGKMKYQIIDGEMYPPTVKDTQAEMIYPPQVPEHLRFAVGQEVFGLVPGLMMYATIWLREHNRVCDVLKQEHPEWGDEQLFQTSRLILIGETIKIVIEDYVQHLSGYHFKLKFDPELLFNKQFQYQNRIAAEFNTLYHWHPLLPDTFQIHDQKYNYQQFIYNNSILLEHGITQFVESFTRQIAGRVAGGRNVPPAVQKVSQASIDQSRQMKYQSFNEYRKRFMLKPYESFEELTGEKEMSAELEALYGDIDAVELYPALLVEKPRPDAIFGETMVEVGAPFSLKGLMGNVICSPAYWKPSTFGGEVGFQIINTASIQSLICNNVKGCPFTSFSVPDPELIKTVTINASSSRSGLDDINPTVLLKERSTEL
Description: as §8, §9

TSA-201 cells = assay: MTT assay of metabolic activity, noncancerous TSA-201; type: cell-based, human; settings: 72 h, MTT; read-out: IC50 TSA-210
Description: as §1, §2, §3

[6] = Stability in organic solutions (1H NMR); type: physicochemical; settings: DMSO-d6, measured after 5 min / immediately after dissolution
Description: Furthermore, it needs to be clarified whether organic solvent molecules are capable of ligand exchange reactions at the PtCl3 unit and form corresponding reaction/degradation products of the GW7604-Alk-PtCl3 complexes. Therefore, ^1H NMR experiments were performed with noncoordinating [e.g., acetone-d6, methanol-d4] and coordinating [e.g., acetonitrile-d3 , DMF-d7, dimethyl sulfoxide-d6 (DMSO-d6)] solvents. It should further be assessed whether the solvents are suitable for preparing stock solutions for structural characterization or in vitro testing.
The solutions (concentrations of 4.5–5.0 mM) were stored in NMR tubes at room temperature (rt) after being purged with argon.

COX-1 = system: COX-1; parameters: method as in PMID 29848978; settings: 10 μM, incubation time 10 min; cited from earlier work
COX-2 = system: COX-2; parameters: method as in PMID 29848978; settings: comparable concentration (10 μM); cited from earlier work
tumor cells = system: tumor cells; parameters: method as in PMID 25604474; settings: cited from earlier work
Water solubility = type: physicochemical

Compound: N.N.[Cl][Pt][Cl] [Cisplatin, cis-diamminedichloridoplatinum(II), reference compound]
- IC50 (MCF-7 cells [1]): 15 µM
- reduction of metabolic activity (SKBr3 cells [2]; SKBr3, 20 μM): 88%
- intracellular platinum amount (MCF-7 cells [3]): 319 pmol/mg
- accumulation in SKBr3 relative to MCF-7 cells (SKBr3 cells [4]; 20 μM): 15 fold
- intracellular platinum amount (SKBr3 cells [4]; SKBr3, 20 μM): 995 pmol/mg
- platinum content in the nuclei (nuclei of MCF-7 cells): 172 pmol/mg
- platinum content in the nuclei (nuclei of SKBr3 cells): 652 pmol/mg
- comet tails (DNA cross-links) (MCF-7 cells [5]): visible as comet tails

Compound: C=C.O.[Cl][Pt-]([Cl])[Cl].[K+] [Zeise’s salt, K[PtCl3(C2H4)]]
- % COX-1 inhibition (human recombinant COX-1): 83%
- % COX-2 inhibition (human recombinant COX-2): 0%
- IC50 (MCF-7 cells [1]): > 20 µM
- IC50 (SKBr3 cells [2]; MTT): > 20 µM
- IC50 (TSA-201 cells): > 20 µM
- stability in DMSO-d6 [6]: gas bubbling occurred from the released ethylene
- COX-1 inhibition (COX-1): 100%
- COX-2 inhibition (COX-2): inactive
- cytotoxicity against tumor cells in vitro (tumor cells): no cytotoxicity

Compound: Potassium trichlorido[η^2-(prop-2-en-1-yl (E)-3-(4-((E/Z)-1-(4-hydroxyphenyl)-2-phenylbut-1-en-1-yl)phenyl)acrylate)]platinate(II) [GW7604-Prop-PtCl3]
- water solubility (Water solubility): does not have sufficient water solubility
